# According to PMC5884507, “A group of Populus trichocarpa DUF231 proteins exhibit differential O-acetyltransferase activities toward xylan” (PLoS ONE, 2018):
# Key:
# Experiment in all cases: radiolabelled acetyl transfer, scintillation counting
# Assay type in all cases: biochemical
# Settings in all cases: 0.1 mM 14C-acetyl-CoA, 50 mM HEPES pH 7.0, 37 C, 4 hr
# PtrXOAT4 = molecular target: T1, PtrXOAT4 (Populus trichocarpa, UniProt A0A2R4P4M0)
# T1 construct: gene XOAT4; lumenal catalytic domain 37-428, transmembrane region removed; Igkappa leader, C-terminal c-myc and His6; secreted by HEK293F, nickel-purified
# PtrXOAT10 = molecular target: T2, PtrXOAT10 (Populus trichocarpa, UniProt A0A2R4P4N0)
# T2 construct: gene XOAT10; lumenal catalytic domain 55-438, transmembrane region removed; Igkappa leader, C-terminal c-myc and His6; secreted by HEK293F, nickel-purified
# PtrXOAT8 = molecular target: T3, PtrXOAT8 (Populus trichocarpa, UniProt A0A2R4P4N1)
# T3 construct: gene XOAT8; lumenal catalytic domain 33-415, transmembrane region removed; Igkappa leader, C-terminal c-myc and His6; secreted by HEK293F, nickel-purified
# PtrXOAT9 = molecular target: T4, PtrXOAT9 (Populus trichocarpa, UniProt A0A2K1ZDC4)
# T4 construct: gene XOAT9; lumenal catalytic domain 52-437, transmembrane region removed; Igkappa leader, C-terminal c-myc and His6; secreted by HEK293F, nickel-purified
# PtrXOAT6 = molecular target: T5, PtrXOAT6 (Populus trichocarpa, UniProt A0A2R4P4M4)
# T5 construct: gene XOAT6; lumenal catalytic domain 36-446, transmembrane region removed; Igkappa leader, C-terminal c-myc and His6; secreted by HEK293F, nickel-purified
# PtrXOAT5 = molecular target: T6, PtrXOAT5 (Populus trichocarpa, UniProt A0A2R4P4M8)
# T6 construct: gene XOAT5; lumenal catalytic domain 33-470, transmembrane region removed; Igkappa leader, C-terminal c-myc and His6; secreted by HEK293F, nickel-purified
# PtrXOAT7 = molecular target: T7, PtrXOAT7 (Populus trichocarpa, UniProt B9IGB9)
# T7 construct: gene XOAT7; lumenal catalytic domain 38-426, transmembrane region removed; Igkappa leader, C-terminal c-myc and His6; secreted by HEK293F, nickel-purified
# T7 sequence (B9IGB9 entry or part of it): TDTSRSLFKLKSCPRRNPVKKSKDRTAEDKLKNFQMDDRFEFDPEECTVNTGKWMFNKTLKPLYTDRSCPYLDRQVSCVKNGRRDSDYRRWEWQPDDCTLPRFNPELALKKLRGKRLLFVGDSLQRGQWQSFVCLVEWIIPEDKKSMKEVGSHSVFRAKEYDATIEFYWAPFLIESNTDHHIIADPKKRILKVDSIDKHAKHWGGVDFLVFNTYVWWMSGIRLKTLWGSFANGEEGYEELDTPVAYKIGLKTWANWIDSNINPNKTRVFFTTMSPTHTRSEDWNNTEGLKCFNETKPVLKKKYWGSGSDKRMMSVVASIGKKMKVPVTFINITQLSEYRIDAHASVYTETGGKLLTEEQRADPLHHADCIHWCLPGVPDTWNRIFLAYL
# T5 sequence (A0A2R4P4M4 entry or part of it): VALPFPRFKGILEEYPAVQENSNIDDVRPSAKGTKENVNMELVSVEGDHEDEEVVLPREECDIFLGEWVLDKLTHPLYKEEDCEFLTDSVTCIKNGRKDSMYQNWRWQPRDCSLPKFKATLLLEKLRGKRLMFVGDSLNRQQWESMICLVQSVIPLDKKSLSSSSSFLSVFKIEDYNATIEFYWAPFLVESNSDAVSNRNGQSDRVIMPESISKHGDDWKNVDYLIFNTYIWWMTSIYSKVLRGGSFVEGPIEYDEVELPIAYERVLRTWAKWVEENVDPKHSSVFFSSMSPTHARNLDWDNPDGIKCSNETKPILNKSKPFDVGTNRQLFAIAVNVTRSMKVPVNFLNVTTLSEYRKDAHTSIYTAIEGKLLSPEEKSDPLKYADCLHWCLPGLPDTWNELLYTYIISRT
# T3 sequence (A0A2R4P4N1 entry or part of it): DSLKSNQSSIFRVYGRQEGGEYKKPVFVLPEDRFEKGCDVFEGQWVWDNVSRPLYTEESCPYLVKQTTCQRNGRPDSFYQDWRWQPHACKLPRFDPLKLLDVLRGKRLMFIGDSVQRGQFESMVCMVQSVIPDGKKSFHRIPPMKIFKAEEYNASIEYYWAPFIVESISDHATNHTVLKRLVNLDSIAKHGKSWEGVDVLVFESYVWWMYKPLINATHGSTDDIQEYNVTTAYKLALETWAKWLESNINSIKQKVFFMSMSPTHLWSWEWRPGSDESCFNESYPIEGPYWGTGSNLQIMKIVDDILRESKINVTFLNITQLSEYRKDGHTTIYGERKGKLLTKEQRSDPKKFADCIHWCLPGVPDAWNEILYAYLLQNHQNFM
# T2 sequence (A0A2R4P4N0 entry or part of it): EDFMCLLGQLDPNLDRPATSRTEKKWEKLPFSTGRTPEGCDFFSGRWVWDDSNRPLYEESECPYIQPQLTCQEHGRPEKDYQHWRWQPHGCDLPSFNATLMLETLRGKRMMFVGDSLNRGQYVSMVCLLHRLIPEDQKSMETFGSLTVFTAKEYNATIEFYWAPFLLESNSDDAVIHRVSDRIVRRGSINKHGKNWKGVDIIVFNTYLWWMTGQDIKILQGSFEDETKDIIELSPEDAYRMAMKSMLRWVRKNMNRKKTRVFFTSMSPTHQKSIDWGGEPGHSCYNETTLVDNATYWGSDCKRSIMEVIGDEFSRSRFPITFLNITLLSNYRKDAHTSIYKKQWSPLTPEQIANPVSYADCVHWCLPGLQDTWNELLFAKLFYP
# T1 sequence (A0A2R4P4M0 entry or part of it): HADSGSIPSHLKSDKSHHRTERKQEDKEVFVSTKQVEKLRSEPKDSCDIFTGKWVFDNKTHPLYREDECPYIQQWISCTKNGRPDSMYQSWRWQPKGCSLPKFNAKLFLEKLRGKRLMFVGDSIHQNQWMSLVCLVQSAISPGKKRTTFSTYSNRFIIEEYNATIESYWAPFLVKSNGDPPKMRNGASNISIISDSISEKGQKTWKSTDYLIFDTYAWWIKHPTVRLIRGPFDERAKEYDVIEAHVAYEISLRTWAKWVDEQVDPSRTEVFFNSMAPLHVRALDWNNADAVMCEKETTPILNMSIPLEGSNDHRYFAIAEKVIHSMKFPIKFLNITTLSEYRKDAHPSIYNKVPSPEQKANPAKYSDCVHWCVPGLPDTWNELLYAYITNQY
# T4 sequence (A0A2K1ZDC4 entry or part of it): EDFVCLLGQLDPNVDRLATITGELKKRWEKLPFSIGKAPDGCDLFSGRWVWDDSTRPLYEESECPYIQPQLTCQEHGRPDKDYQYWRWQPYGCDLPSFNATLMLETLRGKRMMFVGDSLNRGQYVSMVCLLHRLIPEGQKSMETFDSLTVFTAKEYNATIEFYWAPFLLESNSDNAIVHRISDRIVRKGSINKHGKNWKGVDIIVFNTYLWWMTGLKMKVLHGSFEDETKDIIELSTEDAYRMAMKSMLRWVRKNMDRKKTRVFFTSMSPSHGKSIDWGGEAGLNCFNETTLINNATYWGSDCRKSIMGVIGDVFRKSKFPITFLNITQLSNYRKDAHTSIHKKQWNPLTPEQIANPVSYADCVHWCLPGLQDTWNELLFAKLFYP
# T6 sequence (A0A2R4P4M8 entry or part of it): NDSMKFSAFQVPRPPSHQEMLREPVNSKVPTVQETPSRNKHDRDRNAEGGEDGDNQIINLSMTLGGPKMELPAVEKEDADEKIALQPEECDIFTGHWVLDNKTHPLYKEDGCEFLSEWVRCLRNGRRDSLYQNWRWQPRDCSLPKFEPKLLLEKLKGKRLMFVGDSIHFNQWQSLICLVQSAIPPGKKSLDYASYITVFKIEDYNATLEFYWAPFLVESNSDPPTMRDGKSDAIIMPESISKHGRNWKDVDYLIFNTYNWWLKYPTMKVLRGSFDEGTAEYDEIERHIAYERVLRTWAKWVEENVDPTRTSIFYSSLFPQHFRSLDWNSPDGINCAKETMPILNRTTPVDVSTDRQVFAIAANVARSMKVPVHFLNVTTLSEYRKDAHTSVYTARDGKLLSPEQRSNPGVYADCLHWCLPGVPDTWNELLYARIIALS
smiles,measurement,setting,value
"OC1OC[C@@H](O[C@@H]2OC[C@@H](O[C@@H]3OC[C@@H](O[C@@H]4OC[C@@H](O[C@@H]5OC[C@@H](O[C@@H]6OC[C@@H](O)[C@H](O)[C@H]6O)[C@H](O)[C@H]5O)[C@H](O)[C@H]4O)[C@H](O)[C@H]3O)[C@H](O)[C@H]2O)[C@H](O)[C@H]1O (stereo partly shown) [Xyl6, xylohexaose]","radiolabelled acetyl transfer, scintillation counting",PtrXOAT4,PtrXOAT4 to PtrXOAT10 had a low level of activity
same,"radiolabelled acetyl transfer, scintillation counting",PtrXOAT10,PtrXOAT4 to PtrXOAT10 had a low level of activity
same,"radiolabelled acetyl transfer, scintillation counting",PtrXOAT8,PtrXOAT4 to PtrXOAT10 had a low level of activity
same,"radiolabelled acetyl transfer, scintillation counting",PtrXOAT9,PtrXOAT4 to PtrXOAT10 had a low level of activity
same,"radiolabelled acetyl transfer, scintillation counting",PtrXOAT6,PtrXOAT4 to PtrXOAT10 had a low level of activity
same,"radiolabelled acetyl transfer, scintillation counting",PtrXOAT5,PtrXOAT4 to PtrXOAT10 had a low level of activity
same,"radiolabelled acetyl transfer, scintillation counting",PtrXOAT7,PtrXOAT4 to PtrXOAT10 had a low level of activity
